The source of these data is PubChem BioAssay AID179 (DTP/NCI, 2004).

The test has as its system CEM cells HIV-1 protection, formazan growth assay. The test can be described thus: NCI AIDS Antiviral Assay. The settings on record: for IC50: measured here: growth of uninfected CEM cells. A digest of the protocol: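 Five concentrations of each compound were applied to infected and uninfected human CEM cells. Protection from HIV-1 was judged from growth measured with a soluble formazan assay.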

The source made the active and inactive calls.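 How the source made its calls: active means compounds giving half or more protection of infected cells from virus-caused growth loss, again on retest; inactive means the rest.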

As for `[O-]c1c2cc(-[n+]3c(-c4ccccc4)cc(-c4ccccc4)cc3-c3ccccc3)cc1COCCOCCOCCOCCOC2`, the EC50 is > 200 µM and the IC50 turned out to be 36.3 µM. For `Nc1nc2ncn(CC(O)CO)c2c(=O)[nH]1` (stereo unspecified) the same measures were > 60.3 µM and > 60.3 µM. As for `Cn1nc(-c2ccccc2)c(C(=O)/C=C/c2ccc(F)cc2)c(N2CCCCC2)c1=O`, the EC50 was > 18.6 µM and the IC50 was > 18.6 µM. Turning to `CN(C)CCNC(=O)c1ccc(Cl)c2c(Nc3ccc(S(N)(=O)=O)cc3)c3ccccc3nc12`, the result was inactive. Consider `Cc1ccc(C(=O)c2ccccc2)c(C(=O)O)c1`, for which the concentration giving a half-maximal response (EC50) was > 200 µM and the IC50 is > 200 µM. In the case of `CC(C)(C)n1c(=O)n2c(-c3ccccc3)c(-c3ccccc3)n2c1=O`, the EC50 is > 200 µM and the half-maximal inhibitory concentration (IC50) came to 25.7 µM. For `Nc1nc(=O)[nH]c(N)c1N=O` the same measures were > 200 µM and > 200 µM. For `Cc1ccnc(NC(=O)Nc2ccc(F)c([N+](=O)[O-])c2)c1` the same measures were > 200 µM and > 200 µM.

Regarding `FC1=C2C3CCC(C3)C2C1(F)F` (stereo unspecified), the EC50 was > 200 µM and the concentration for half-maximal inhibition (IC50) is > 200 µM. For the compound `N#CC1=C(C#N)SCCCS1`, the EC50 is > 14.8 µM and the concentration for half-maximal inhibition (IC50) was > 14.8 µM. With `COc1ccc(C2SC(N)=Nc3c2c(C)nn3C(=O)c2ccc(Cl)cc2)cc1` (stereo unspecified), the EC50 was > 200 µM and the IC50 was 151 µM.

Regarding `CCCCNCCC(SSSC(CCNCCCC)c1ccc(Cl)cc1)c1ccc(Cl)cc1` (stereo unspecified), the EC50 is > 200 µM and the IC50 was 3.47 µM. In the same order, the values of `ClC(Cl)(Cl)C1CCOC1n1nc2ccccc2n1` (stereo unspecified) are > 200 µM and > 200 µM.

For `COc1cc2c(cn1)[nH]c1ccccc12`, the outcome was inactive.

Take `Cc1cccc(NC(=S)N/N=C(/c2ccccc2)c2ccccn2)c1`: the EC50 is > 0.2 µM and the IC50 turned out to be 0.0933 µM.

Consider `[N-]=[N+]=C(C(=O)C(=[N+]=[N-])C(=O)c1ccccc1)C(=O)c1ccccc1`, for which the EC50 was > 112 µM and the half-inhibitory concentration (IC50) was > 112 µM. On to `N/N=C(N)/C(N)=N/N`, for which the result was inactive.

As for `COC(=O)c1cc(C#N)[nH]c1-c1ccsc1`, the EC50 is > 200 µM and the IC50 turned out to be 30.9 µM. As to `O=[N+]([O-])c1cccc[c]1[Sb](=[O])([OH])[c]1ccccc1[N+](=O)[O-]`, the EC50 was > 200 µM and the concentration for half-maximal inhibition (IC50) came to 25.1 µM. In the same order, the values of `CC1=C(N(C)C)C(=O)c2nc3n(c2C1=O)CCC3OC(N)=O` (stereo unspecified) are > 200 µM and 11.2 µM. `CCOc1cc[n+](C(=C=[N-])C#N)cc1`: the result was inactive.

As for `O=C1CNC(=O)c2c(ncn2C2OC(CO)CC2O)N1` (stereo unspecified), the EC50 was > 302 µM and the concentration for half-maximal inhibition (IC50) was > 302 µM. On to `CCOC(=O)C1=C(C(=O)OCC)C2c3ccccc3C=CN2C(C(=O)OCC)=C(SC)S1` (stereo unspecified), for which the EC50 was > 7.94 µM and the concentration for half-maximal inhibition (IC50) was > 7.94 µM. For the compound `CCOC(=O)/C(=C\c1ccc([N+](=O)[O-])cc1)[Se]c1ccccc1`, the EC50 is > 69.2 µM and the 50% inhibitory concentration (IC50) stood at 26.9 µM. For `CN(C)CCCNCc1cc(N(C)C)cc(CNCCCN(C)C)n1` the same measures were > 200 µM and > 200 µM. Turning to `Cc1nc2c(=O)[nH]c(=O)nc-2n(CCO)c1C`, the EC50 was > 100 µM and the half-inhibitory concentration (IC50) was 40.7 µM.

Consider `N#Cc1c(-c2ccccc2)c(-c2ccccc2)cc2c(=O)c3ccc(Cl)cc3[nH]c12`, for which the EC50 was > 33.1 µM and the IC50 was > 33.1 µM. As for `O=Nc1c(O)c2ccccc2[nH]c1=O`, the EC50 is > 200 µM and the 50% inhibitory concentration (IC50) amounted to 45.7 µM. As for `CCNC(=O)c1c(O)c2ccccc2[nH]c1=O`, the EC50 was > 200 µM and the IC50 was > 200 µM.

Regarding `CC1=CC2c3c(O)cc(-c4cc5ccc(O)cc5o4)cc3OC3(c4ccc(O)c5c4OC(C)(C)C=C5)Oc4cc(O)ccc4[C@H](C1)C23` (stereo partly specified), the EC50 is > 20.9 µM and the IC50 was determined as 3.72 µM.

A word on the EC50: it is the concentration needed to bring the measured effect to its halfway point. One may read the IC50 as the concentration that inhibits the measured activity by half.
